For one assay, the target named is T1, IRAK-4 (Homo sapiens, UniProt Q9NWZ3).
T1 construct: purchased Carna Biosciences, Inc
T1 sequence (Q9NWZ3 1-460): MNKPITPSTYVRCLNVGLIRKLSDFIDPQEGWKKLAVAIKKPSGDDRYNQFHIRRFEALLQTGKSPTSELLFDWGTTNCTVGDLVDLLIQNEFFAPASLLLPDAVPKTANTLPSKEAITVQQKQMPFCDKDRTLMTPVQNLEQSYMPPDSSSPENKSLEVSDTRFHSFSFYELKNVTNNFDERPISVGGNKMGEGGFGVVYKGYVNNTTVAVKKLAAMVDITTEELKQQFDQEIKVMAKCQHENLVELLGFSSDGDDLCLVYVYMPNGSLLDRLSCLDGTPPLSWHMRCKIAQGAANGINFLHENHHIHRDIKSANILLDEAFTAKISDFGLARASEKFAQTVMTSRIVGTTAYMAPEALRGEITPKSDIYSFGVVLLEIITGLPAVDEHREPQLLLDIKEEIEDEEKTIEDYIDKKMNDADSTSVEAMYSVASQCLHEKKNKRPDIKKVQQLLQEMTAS
The assay can be described thus: IRAK-4 Enzyme Inhibition Test (LANCE method). The format is biochemical. The following applies: compound concentration 1 μM; well without enzyme = 100% inhibition. The procedure: IRAK-4 enzyme inhibitory activities of test compounds were measured by LANCE method (PerkinElmer). First, a test compound diluted with assay buffer (50 mM HEPES (pH7.5), 10 mM MgCl2, 1 mM EGTA, 2 mM DTT, 0.01% Tween 20, 0.01% BSA) was added to 384-well plate at 2 μL each. Then, IRAK-4 (Carna Biosciences, Inc.) and a fluorescence-labeled peptide substrate (ULight-ACC peptide, PerkinElmer) solution diluted with assay buffer at 240 ng/mL and 37.5 nM, respectively were added at 2 μL each. Then, enzyme reaction was started by adding 2 μL each of ATP solution prepared with assay buffer at 1.5 mM. After the reaction at room temperature for 1 hr, Detection Buffer (PerkinElmer) prepared to be 20 mM EDTA, 1 nM europium-labeled anti-phospho ACC antibody (PerkinElmer) was added at 6 μL each. After standing at room temperature for 1 hr, fluorescence intensity (excitation wavelength 340 nm, fluorescence wavelength 665 nm, delay time 100 microseconds) was measured by a plate reader, Envision (PerkinElmer). The inhibitory activity of each compound was calculated as relative value where fluorescence intensity of a well without enzyme is considered as 100% inhibition.
A general note: Time-resolved FRET reads energy transfer from a long-lived donor to a nearby acceptor.
As to `CN(C)CC1CN(c2nn(C)cc2NC(=O)c2coc(-c3ccnc(NCC(F)(F)F)c3)n2)C(=O)C1(C)C` (stereo not shown) [Example 62, N-(3-(4-((dimethylamino)methyl)-3,3-dimethyl-2-oxopyrrolidin-1-yl)-1-methyl-1H-pyrazol-4-yl)-2-(2-((2,2,2-trifluoroethyl)amino)pyridin-4-yl)-1,3-oxazole-4-carboxamide], the “IRAK4 enzyme inhibitory rate (%) at 1 μM” value is 100%.

Still in this assay, the particulars now being: compound concentration 1 μM; well without enzyme = 100% inhibition; read-out: IRAK4 enzyme inhibitory rate (%) at 1 μM.
Consider `Cn1cc(NC(=O)c2coc(-c3ccnc(NCC(F)(F)F)c3)n2)c(N2C[C@@H](O)CC2=O)n1` [Example 1, N-(3-((4S)-4-hydroxy-2-oxopyrrolidin-1-yl)-1-methyl-1H-pyrazol-4-yl)-2-(2-((2,2,2-trifluoroethyl)amino)pyridin-4-yl)-1,3-oxazole-4-carboxamide], for which the inhibition at 1 µM is 98%.
With `CC1CCN(c2nn(C)cc2NC(=O)c2coc(-c3ccnc(NCC(F)(F)F)c3)n2)C1=O` (stereo not shown) [Example 2, N-(1-methyl-3-(3-methyl-2-oxopyrrolidin-1-yl)-1H-pyrazol-4-yl)-2-(2-((2,2,2-trifluoroethyl)amino)pyridin-4-yl)-1,3-oxazole-4-carboxamide], the inhibition at 1 µM was found to be 98%.
As for `CN(C)CC1CC(=O)N(c2nn(C)cc2NC(=O)c2coc(-c3ccnc(NCC(F)(F)F)c3)n2)C1` (stereo not shown) [Example 3, N-(3-(4-((dimethylamino)methyl)-2-oxopyrrolidin-1-yl)-1-methyl-1H-pyrazol-4-yl)-2-(2-((2,2,2-trifluoroethyl)amino)pyridin-4-yl)-1,3-oxazole-4-carboxamide], the inhibition at 1 µM worked out at 100%.
Consider `Cn1cc(NC(=O)c2coc(-c3ccnc(NCC(F)(F)F)c3)n2)c(N2CCC(C)(C)C2=O)n1` [Example 13, N-(3-(3,3-dimethyl-2-oxopyrrolidin-1-yl)-1-methyl-1H-pyrazol-4-yl)-2-(2-((2,2,2-trifluoroethyl)amino)pyridin-4-yl)-1,3-oxazole-4-carboxamide], for which the inhibition at 1 µM turned out to be 98%.
As for `CN(C)[C@H]1CC(=O)N(c2nn(C)cc2NC(=O)c2coc(-c3ccnc(NCC(F)(F)F)c3)n2)C1` [Example 16, N-(3-((4S)-4-(dimethylamino)-2-oxopyrrolidin-1-yl)-1-methyl-1H-pyrazol-4-yl)-2-(2-((2,2,2-trifluoroethyl)amino)pyridin-4-yl)-1,3-oxazole-4-carboxamide], the inhibition at 1 µM is 98%.
On to `C[C@H]1C(O)C(C)(C)C(=O)N1c1nn(C)cc1NC(=O)c1coc(-c2ccnc(NCC(F)(F)F)c2)n1` (stereo partly drawn) [Example 17, N-(3-((5S)-4-hydroxy-3,3,5-trimethyl-2-oxopyrrolidin-1-yl)-1-methyl-1H-pyrazol-4-yl)-2-(2-((2,2,2-trifluoroethyl)amino)pyridin-4-yl)-1,3-oxazole-4-carboxamide], for which the inhibition at 1 µM turned out to be 77%.
With `Cc1cccc(C(=O)Nc2cn(C)nc2N2CCC(C)(C)C2=O)n1` [Example 36, N-(3-(3,3-dimethyl-2-oxopyrrolidin-1-yl)-1-methyl-1H-pyrazol-4-yl)-6-methylpyridine-2-carboxamide], the inhibition at 1 µM is 36%.
Consider `Cn1cc(NC(=O)c2ccn(C(F)F)n2)c(N2CCC(C)(C)C2=O)n1` [Example 40, 1-(difluoromethyl)-N-(3-(3,3-dimethyl-2-oxopyrrolidin-1-yl)-1-methyl-1H-pyrazol-4-yl)-1H-pyrazole-3-carboxamide], for which the inhibition at 1 µM turned out to be 56%.
In the case of `Cc1cccc(C(=O)Nc2cn(C)nc2N2CCC(C)(C)C2=O)c1` [Example 46, N-(3-(3,3-dimethyl-2-oxopyrrolidin-1-yl)-1-methyl-1H-pyrazol-4-yl)-3-methylbenzamide], the inhibition at 1 µM came to 30%.
For the compound `CN1CCN(c2nn(C)cc2NC(=O)c2coc(-c3ccnc(NCC(F)(F)F)c3)n2)C1=O` [Example 48, N-(1-methyl-3-(3-methyl-2-oxoimidazolidin-1-yl)-1H-pyrazol-4-yl)-2-(2-((2,2,2-trifluoroethyl)amino)pyridin-4-yl)-1,3-oxazole-4-carboxamide], the inhibition at 1 µM is 99%.
In the case of `Cn1cc(NC(=O)c2coc(-c3ccnc(NCC(F)(F)F)c3)n2)c(N2CCOC2=O)n1` [Example 55, N-(1-methyl-3-(2-oxo-1,3-oxazolidin-3-yl)-1H-pyrazol-4-yl)-2-(2-((2,2,2-trifluoroethyl)amino)pyridin-4-yl)-1,3-oxazole-4-carboxamide], the inhibition at 1 µM amounted to 99%.
Take `Cn1cc(NC(=O)c2coc(-c3ccnc(NCC4CC4)c3)n2)c(N2CCN(CCO)C2=O)n1` [Example 59, 2-(2-((cyclopropylmethyl)amino)pyridin-4-yl)-N-(3-(3-(2-hydroxyethyl)-2-oxoimidazolidin-1-yl)-1-methyl-1H-pyrazol-4-yl)-1,3-oxazole-4-carboxamide]: the inhibition at 1 µM amounted to 100%.
On to `Cn1cc(NC(=O)c2coc(-c3ccnc(NCC(F)F)c3)n2)c(N2CCN(CCO)C2=O)n1` [Example 60, 2-(2-((2,2-difluoroethyl)amino)pyridin-4-yl)-N-(3-(3-(2-hydroxyethyl)-2-oxoimidazolidin-1-yl)-1-methyl-1H-pyrazol-4-yl)-1,3-oxazole-4-carboxamide], for which the inhibition at 1 µM was 99%.
In the case of `CN(C)CC1CN(c2nn(C)cc2NC(=O)c2coc(-c3ccnc(NCC(F)(F)F)c3)n2)C(=O)C1(C)C` (stereo not shown) [Example 61, N-(3-(4-((dimethylamino)methyl)-3,3-dimethyl-2-oxopyrrolidin-1-yl)-1-methyl-1H-pyrazol-4-yl)-2-(2-((2,2,2-trifluoroethyl)amino)pyridin-4-yl)-1,3-oxazole-4-carboxamide], the inhibition at 1 µM came to 100%.
For `C[C@H]1CCN(c2nn(C)cc2NC(=O)c2coc(-c3ccnc(NCC(F)(F)F)c3)n2)C1=O` [Example 77, N-(1-methyl-3-((3S)-3-methyl-2-oxopyrrolidin-1-yl)-1H-pyrazol-4-yl)-2-(2-((2,2,2-trifluoroethyl)amino)pyridin-4-yl)-1,3-oxazole-4-carboxamide], the inhibition at 1 µM stood at 99%.
For `Cn1cc(NC(=O)c2coc(-c3ccnc(NCC(F)(F)F)c3)n2)c(N2CC(CO)C(C)(C)C2=O)n1` (stereo not shown) [Example 101, N-(3-(4-(hydroxymethyl)-3,3-dimethyl-2-oxopyrrolidin-1-yl)-1-methyl-1H-pyrazol-4-yl)-2-(2-((2,2,2-2-trifluoroethyl)amino)pyridin-4-yl)-1,3-oxazole-4-carboxamide], the inhibition at 1 µM stood at 99%.
Consider `CNCC1CN(c2nn(C)cc2NC(=O)c2coc(-c3ccnc(NCC(F)(F)F)c3)n2)C(=O)N1C` (stereo not shown) [Example 110, N-(1-methyl-3-(3-methyl-4-((methylamino)methyl)-2-oxoimidazolidin-1-yl)-1H-pyrazol-4-yl)-2-(2-((2,2,2-trifluoroethyl)amino)pyridin-4-yl)-1,3-oxazole-4-carboxamide], for which the inhibition at 1 µM was determined as 98%.
For the compound `CC(O)CN1CCN(c2nn(C)cc2NC(=O)c2coc(-c3ccnc(NCC(F)(F)F)c3)n2)C1=O` (stereo not shown) [Example 164, N-(3-(3-(2-hydroxypropyl)-2-oxoimidazolidin-1-yl)-1-methyl-1H-pyrazol-4-yl)-2-(2-((2,2,2-trifluoroethyl)amino)pyridin-4-yl)-1,3-oxazole-4-carboxamide], the inhibition at 1 µM is 98%.
Turning to `Cn1cc(NC(=O)c2cccc(N3C[C@@H](CN)NC3=O)n2)c(N2CCC(C)(C)C2=O)n1` [Example 199, 6-((4R)-4-(aminomethyl)-2-oxoimidazolidin-1-yl)-N-(3-(3,3-dimethyl-2-oxopyrrolidin-1-yl)-1-methyl-1H-pyrazol-4-yl)pyridine-2-carboxamide], the inhibition at 1 µM amounted to 99%.
For `Cn1cc(NC(=O)c2cccc(N3CC4(CCNC4)NC3=O)n2)c(N2CCC(C)(C)C2=O)n1` (stereo not shown) [Example 206, N-(3-(3,3-dimethyl-2-oxopyrrolidin-1-yl)-1-methyl-1H-pyrazol-4-yl)-6-(2-oxo-1,3,7-triazaspiro[4.4]non-3-yl)pyridine-2-carboxamide], the inhibition at 1 µM was determined as 100%.
Regarding `CN1CCN(c2nn(C)cc2NC(=O)c2cccc(N3CC4(CCNC4)NC3=O)n2)C1=O` (stereo not shown) [Example 215, N-(1-methyl-3-(3-methyl-2-oxoimidazolidin-1-yl)-1H-pyrazol-4-yl)-6-(2-oxo-1,3,7-triazaspiro[4.4]non-3-yl)pyridine-2-carboxamide], the inhibition at 1 µM is 100%.
